The source of these data is patent US20200010482A1, “INHIBITORS OF BETA SECRETASE” (Janssen Pharmaceutica NV, priority 2017, published 2020).

Assay [1] addresses T1, BACE1 (Homo sapiens, UniProt P56817).
T1 construct: recombinant BACE1 protein in a final concentration of 0.04 μg/ml
The assay is described as follows: BACE1 biochemical FRET based assay. The following applies: recombinant BACE1 0.04 μg/ml, 20 μM substrate, 450 min, pH 5.0; for IC50: read-out: BIOCHEMICAL FRET BASED ASSAY pIC50 (converted). The essentials: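 Recombinant BACE1 (0.04 μg/ml final) incubated 450 min at room temperature with 20 μM Mca/Dnp-labelled 13-mer Swedish APP peptide in 50 mM citrate pH 5.0, 0.05% PEG. Fluorescence (ex 320/em 405 nm) at 450 min minus early baseline Tx; IC50 fitted from % Controlmin versus concentration.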

Assay [2] has as its system Abeta 1-42 produced and secreted by SKNBE2 cells expressing hAPP695. As to the kind of experiment: Cellular αLisa assay in SKNBE2 cells, Abeta 1-42. The assay is classed as cell-based, human. The following applies: SKNBE2 cells expressing hAPP695, 18 hours incubation; for IC50: Homo sapiens, SKNBE2, 18 h, read-out: CELLULAR αLISA ASSAY IN SKNBE2 CELLS ABETA 42 PIC50 (converted). The essentials:
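Human neuroblastoma SKNBE2 cells expressing wild-type hAPP695 treated with compound for 18 h; secreted Abeta total or Abeta 1-42 in medium measured by sandwich αLisa (AbN/25 with Ab4G8 or cAb42/26), read after 1 h. IC50 from least-squares fit of % Controlmin, normalised to untreated and no-antibody controls.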

Assay [3] addresses T2, BACE2 (Homo sapiens, UniProt Q9Y5Z0).
T2 construct: recombinant BACE2 protein in a final concentration of 0.4 μg/ml
T2 sequence (Q9Y5Z0 63-518): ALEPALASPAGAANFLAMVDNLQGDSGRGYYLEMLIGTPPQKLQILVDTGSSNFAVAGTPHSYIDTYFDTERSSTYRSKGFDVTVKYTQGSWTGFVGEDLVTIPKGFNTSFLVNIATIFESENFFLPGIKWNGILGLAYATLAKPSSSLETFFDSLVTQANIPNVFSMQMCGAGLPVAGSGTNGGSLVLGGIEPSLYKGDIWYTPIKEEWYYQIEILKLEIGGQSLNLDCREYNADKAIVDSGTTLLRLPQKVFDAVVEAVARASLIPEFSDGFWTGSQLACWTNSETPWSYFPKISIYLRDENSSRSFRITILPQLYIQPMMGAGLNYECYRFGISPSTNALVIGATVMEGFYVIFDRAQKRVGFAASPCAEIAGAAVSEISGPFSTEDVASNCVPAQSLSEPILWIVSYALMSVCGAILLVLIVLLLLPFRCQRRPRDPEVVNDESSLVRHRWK
The assay is described as follows: BACE2 biochemical FRET based assay. The following applies: recombinant BACE2 0.4 μg/ml, 10 μM substrate, 450 min, pH 5.0; for IC50: read-out: BIOCHEMICAL FRET BASED ASSAY pIC50 (converted). The essentials: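 Recombinant enzyme (0.4 μg/ml final) incubated 450 min at room temperature with 10 μM Mca/Dnp-quenched Swedish-mutant APP peptide in 50 mM citrate pH 5.0, 0.05% PEG, no DMSO. Fluorescence (ex 320/em 405 nm) change from T0 to T450 normalised to no-enzyme and enzyme controls; IC50 from least-squares curve fit.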

T1 sequence (P56817 46-501): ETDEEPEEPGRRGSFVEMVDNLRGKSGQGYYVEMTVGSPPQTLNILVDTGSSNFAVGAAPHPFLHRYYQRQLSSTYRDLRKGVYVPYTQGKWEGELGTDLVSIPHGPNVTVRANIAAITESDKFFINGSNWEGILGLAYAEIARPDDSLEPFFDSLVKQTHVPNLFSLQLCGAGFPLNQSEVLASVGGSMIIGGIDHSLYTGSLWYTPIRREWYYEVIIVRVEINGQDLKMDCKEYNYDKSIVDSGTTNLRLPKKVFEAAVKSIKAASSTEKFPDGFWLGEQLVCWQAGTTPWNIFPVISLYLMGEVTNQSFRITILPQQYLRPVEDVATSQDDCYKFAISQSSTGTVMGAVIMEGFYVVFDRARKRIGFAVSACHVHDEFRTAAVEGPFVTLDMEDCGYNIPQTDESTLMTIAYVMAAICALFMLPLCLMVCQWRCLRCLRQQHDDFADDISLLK

Take `COc1ncc(C#N)c2c1C[C@]1(c3ccccc3F)N=C(N)SC[C@@H]1C2` (racemic) [Compound 22]: the IC50 in assay [1] is 178 nM; in assay [2], 41.7 nM; in assay [3] it was 240 nM.

In the case of `COC/C=C/c1cnc(OC)c2c1C[C@H]1CSC(N)=N[C@@]1(c1ccc(F)cc1F)C2` [Compound 47], the IC50 in assay [1] is 10.2 nM; in assay [2], 5.62 nM; in assay [3] it was 6.61 nM.

In the case of `COc1ncc(-c2ccccc2)c2c1C[C@]1(c3ccc(F)cc3F)N=C(N)SC[C@@H]1C2` [Compound 49], the “BIOCHEMICAL FRET BASED ASSAY pIC50” value in assay [1] worked out at 8.81; in assay [3], 8.43. Also, the “CELLULAR αLISA ASSAY IN SKNBE2 CELLS ABETA 42 PIC50” value in assay [2] stood at 8.56.

For the compound `COc1ncc(-c2ccccc2C)c2c1C[C@]1(c3ccc(F)cc3F)N=C(N)SC[C@@H]1C2` [Compound 55], the “BIOCHEMICAL FRET BASED ASSAY pIC50” value in assay [1] was found to be 8.45; in assay [3], 7.4. The “CELLULAR αLISA ASSAY IN SKNBE2 CELLS ABETA 42 PIC50” value in assay [2] is listed as 7.99.

Regarding `COc1ncc(-c2cc(Cl)ccc2C)c2c1C[C@]1(c3ccc(F)cc3F)N=C(N)SC[C@@H]1C2` [Compound 60], the “BIOCHEMICAL FRET BASED ASSAY pIC50” value in assay [1] turned out to be 8.26; in assay [3] it was 6.9. Moreover, in assay [2], the “CELLULAR αLISA ASSAY IN SKNBE2 CELLS ABETA 42 PIC50” value is recorded as 7.25.

For the compound `COc1cc(C)c(-c2cnc(OC)c3c2C[C@H]2CSC(N)=N[C@@]2(c2ccc(F)cc2F)C3)cn1` [Compound 106], the IC50 is 8.71 nM in assay [1], 5.89 nM in assay [2] and 195 nM in assay [3].
